Results as given in US20070207120A1, “Selective Killing Of Cancer Cells By Induction Of Acetyltransferase Via Tnf-Alpha And Il-6” (priority 2004, published 2007).

How the values were obtained:
Assay type in all cases: cell-based, human
normal WI38 cells = experiment: Cytokine and deacetylase inhibitor treatment, normal cells; settings: for effect on / killing of normal WI38 cells: TSA, CBHA 2.5 μg/ml; for cell death in normal cells: in combination with cytokine treatment (TSA 400 nM; SAHA 5 μg/ml)
Description: (§1) Human cells WI38 (ATCC number CCL-75), WI38 VA13 (ECACC number 85062512), SaOS2 (ECACC number 89050205), U20S (ATCC number HTB-96), HeLa (CCL-2), HEK 293 (ATCC number CRL-1573) and Hs68 (ATCC number CRL-1635) were obtained from ATCC, ECACC or CR-UK cell services. All cells were cultured as monolayers in 10% foetal bovine serum in Dulbecco's minimal essential medium at 37° C. in 5% CO2, except SaOS2 cells which were cultured in McCoy's 5a medium supplemented with 1.5 mM L-glutamine and 15% foetal bovine serum. VA13 cells are WI38 primary fibroblasts transformed with SV40 virus and therefore share the same genetic background. To measure cell viability and total cell number, cells in suspension and adherent cells were collated and analysed by resuspending with a known concentration of CaliBRITE unlabelled beads (Becton Dickinson) plus propidium iodide and counting the number of live and dead cells per 3000 beads using a FACSCalibur flow cytometer (Becton Dickinson). Alternatively, an automated trypan blue assay using a Vi-Cell XR Cell Viability Analyzer (Beckman Coulter) was employed. Cells were treated with Interleukin 6 (20 ng/ml) for 24 hours, followed by addition of antibody 80M2 (1 μg/ml), which modulates TNFα receptor 2, and TNFα (10 ng/ml). TNFα was added to the cell culture medium 30 minutes after addition of 80M2. […] All agents were added to the cell culture medium in liquid form. […] For cytokine treatment in combination with deacetylase inhibitors, cells were harvested and counted 48 hours after addition of deacetylase inhibitor.

[1] = system: transformed WI38 VA13 cells; experiment: Cytokine and deacetylase inhibitor treatment, transformed cells; settings: for efficacy in (selective) cell killing of transformed cells: alone and in combination with cytokine treatment, butyric acid 5 mM, TSA, CBHA 2.5 μg/ml, SAHA 5 μg/ml
Description: as §1

MCM3AP = experiment: Western blot of MCM3AP expression after cytokine treatment; settings: HEK 293 cells; IL6 20 ng/ml, 24 hours later TNFα 10 ng/ml and 80M2 1 μg/ml; following three days
Description: HEK 293 cells (ATCC number CRL-1573) and Hs68 cells (ATCC number CRL-1635) were cultured as monolayers in 10% foetal calf serum in Dulbecco's minimal essential medium at 37° C. in 10% or 5% CO2 respectively, according to recommendations by the American Tissue Culture Collection. Stable cell lines of HEK 293 cells expressing inducible wild-type or mutant MCM3AP were made by stable transfection of vectors previously described by Takei et al. (2,3). Expression of MCM3AP was induced in these stable cell lines by treatment with doxycycline.
Exponentially growing cells were harvested and fractionated into soluble and structure-bound fractions. Cells were harvested by scraping adherent cells, pelleted by centrifugation at 200 g for 4 minutes and washed in cold PBS. The cell pellet was resuspended in cold hypotonic buffer (10 mM HEPES-KOH pH 7.3, 5 mM KCl, 1.5 mM MgCl2, 1 mM DTT, 1% NP40 and protease inhibitors) and incubated on ice for 15 minutes. Cells were centrifuged at 10,000 rpm for 5 minutes and the supernatant stored at −80° C. as the soluble protein fraction. […]
Samples were separated by 7.5% SDS-PAGE and transferred to PVDF membrane at a constant voltage of 10V for 1 hour. […] The bound antibodies were detected with peroxidase-conjugated secondary antibody (Amersham Biosciences) and protein bands visualised by the […] method using ECL or ECLplus (Amersham Biosciences). […]

HEK 293 cells = experiment: Apoptosis (annexin V) and attached cell number after cytokine treatment; settings: HEK 293 attached cells; 24 hours after addition of TNFα and 80M2
Description: Cells were treated with Interleukin 6 (20 ng/ml) for 24 hours, followed by addition of antibody 80M2 (1 μg/ml), which modulates TNFα receptor 2, and TNFα (10 ng/ml). TNFα was added to the cell culture medium 30 minutes after addition of 80M2. All agents were added to the cell culture medium in liquid form. Cells were harvested after the indicated number of days of treatment, where ‘time zero’ corresponds to the point of addition of Interleukin 6.
Cells were assayed for apoptosis by Annexin V staining (Oncogene, Annexin V-FITC or Annexin V-Biotin apoptosis detection kit) and TUNEL assay (BD Biosciences, ApoAlert DNA fragmentation assay kit). Cells were assayed for Annexin V and TUNEL assay by flow cytometry, according to manufacturer's instructions. Attached cells were harvested and counted using a haemocytometer to give total attached cell number.
We examined the cell fate outcome of upregulating MCM3AP by cytokine treatment in HEK 293 cells. Treatment of HEK 293 cells with the same combination of cytokines that upregulates MCM3AP induces cell death by apoptosis (FIG. 4). Cells were treated with IL6 for 24 hours, followed by addition of TNFα and antibody 80M2. Attached cells were assayed for apoptosis and total cell number 24 hours and 36 hours later respectively.

Compound | effect on / killing of normal WI38 cells (normal WI38 cells) | cell death in normal cells (normal WI38 cells) [%] | efficacy in (selective) cell killing of transformed cells [1] | MCM3AP protein expression (western blot) (MCM3AP) | also measured
O=C(/C=C/c1cccc(C(=O)NO)c1)NO [CBHA, cinnamic acid bishydroxamic acid] | did not kill primary WI38 cells above background levels |  |  |  | 
O=C(CCCCCCC(=O)Nc1ccccc1)NO [SAHA, suberoylanilide hydroxamic acid] |  | ~40 |  |  | 
CC(/C=C/C(=O)NO)=C\[C@@H](C)C(=O)c1ccc(N(C)C)cc1 [TSA, trichostatin A] | minimal effect | ~20 | efficient in selectively killing transformed cells |  | effect of TSA at lower concentrations ([1]; 100 nM, 200 nM, 400 nM TSA): concentration dependent; transformed cells killed ([1]; three days of cytokine treatment in combination with deacetylase inhibitor (TSA 400 nM; CBHA 2.5 μg/ml; SAHA 5 μg/ml)): 80-90%; live cell number over time (normal WI38 cells; 400 nM TSA in combination with cytokine treatment, compare with t=0 value): reduction in live cell number
CCCC(=O)O [butyric acid] |  |  | least effective |  | 
IL6: cytokine interleukin-6 |  |  |  | does not stimulate MCM3AP significantly | 
TNFα |  |  |  | does not stimulate MCM3AP significantly | apoptosis (annexin-V staining) (HEK 293 cells): markedly reduced
